Experimental data as given in patent publication US20030186410A1, “Novel (r)-2-hydroxy-3-phenylpropionate (d-phenyllactate) dehydrogenase and gene encoding the same” (priority 2000, published 2003).

Tested on: D-PLDH
Experiment: Relative enzyme activity of partially purified enzyme solution with different reaction substrates
Type: biochemical, Mycelia sterilia
Conditions: partially purified enzyme solution (Mono Q10/10) from pDPLDH-1-carrying E. coli, compound used as reaction substrate
Description: A 150 μl portion of buffer solution A containing 250 μM NADPH and 250 μM phenylpyruvic acid was dispensed into wells of a 96-well microtiter plate, 50 μl each of the crude enzyme solution was added and mixed immediately using a pipette, and a change in absorption at 340 nm at 26° C. was measured. The measurement was carried out using an Absorption Microassay Reader BioLumin 960 (Molecular Dynamics) to trace a decrease in absorption with time after the start of the reaction. The amount of the enzyme which oxidized 1 μmol of NADPH per minute was set to be one unit. Results are shown in Table 1 as the enzyme activity of the crude enzyme solution.
Further, the obtained crude enzyme solution was processed using Mono Q10/10 under the conditions described in Example 1-2 to prepare a partially purified enzyme solution. This partially purified enzyme solution was applied onto a 96-well microtiter with different concentrations of the substrate, phenylpyruvic acid, to measure enzyme activity. Further, enzyme activity was also measured with an alternative substrate, pyruvic acid, in place of phenylpyruvic acid. […]

| SMILES | Relative reaction rate (rate with phenylypyruvic acid = 100) |
| --- | --- |
| O=C(O)C(=O)Cc1ccccc1 [Phenylpyruvic acid, 2-oxo-3-phenylpropionic acid] | 100 |
| CC(=O)C(=O)O [Pyruvic acid] | 10 |
